In brackets after ≈: the same amount, converted by molar mass.
Legend:
Bacillus thuringiensis = experiment: Antibacterial activity against Bacillus thuringiensis SCSIO BT01 after 18 hrs by broth microdilution method; format: functional; details: SCSIO BT01, 18 h
Escherichia coli [1] = experiment: Antibacterial activity against extended spectrum beta-lactamase-deficient Escherichia coli 12-14 after 18 hrs by broth microdilution method; format: functional, organism-based; details: 12-14, 18 h, read-out: IC50
Staphylococcus aureus [2] = experiment: Antibacterial activity against methicillin-sensitive Staphylococcus aureus 12-28 after 18 hrs by broth microdilution method; format: functional, organism-based; details: 12-28, 18 h
[3] = tested on: Staphylococcus epidermidis; experiment: Antibacterial activity against methicillin-sensitive Staphylococcus epidermidis ATCC 12228 after 18 hrs by broth microdilution method; format: functional, organism-based; details: ATCC 12228, 18 h, read-out: IC50
Staphylococcus aureus [4] = experiment: Antibacterial activity against methicillin-sensitive Staphylococcus aureus ATCC 29213 after 18 hrs by broth microdilution method; format: functional, organism-based; details: ATCC 29213, 18 h, read-out: IC50
Enterococcus faecalis [5] = experiment: Antibacterial activity against vancomycin-sensitive Enterococcus faecalis ATCC 29212 after 18 hrs by broth microdilution method; format: functional, organism-based; details: ATCC 29212, 18 h, read-out: IC50
Klebsiella pneumoniae [6] = experiment: Antibacterial activity against extended spectrum beta-lactamase-deficient Klebsiella pneumoniae 7 after 18 hrs by broth microdilution method; format: functional, organism-based; details: Klebsiella pneumoniae, 7, 18 h; read-out: IC50
Enterococcus faecalis [7] = experiment: Antibacterial activity against vancomycin-resistant Enterococcus faecalis ATCC 51299 after 18 hrs by broth microdilution method; format: functional, organism-based; details: ATCC 51299, 18 h, read-out: IC50
Enterococcus faecalis [8] = experiment: Antibacterial activity against vancomycin-sensitive Enterococcus faecalis 12-5 after 18 hrs by broth microdilution method; format: functional, organism-based; details: 12-5, 18 h, read-out: IC50
Enterococcus faecalis [9] = experiment: Antibacterial activity against vancomycin-resistant Enterococcus faecalis 09-9 after 18 hrs by broth microdilution method; format: functional, organism-based; details: 09-9, 18 h, read-out: IC50
Enterococcus faecium [10] = experiment: Antibacterial activity against vancomycin-resistant Enterococcus faecium ATCC 700221 after 18 hrs by broth microdilution method; format: functional, organism-based; details: ATCC 700221, 18 h, read-out: IC50
Klebsiella pneumoniae [11] = experiment: Antibacterial activity against extended spectrum beta-lactamase-deficient Klebsiella pneumoniae 12-4 after 18 hrs by broth microdilution method; format: functional, organism-based; details: 12-4, 18 h
Staphylococcus aureus [12] = experiment: Antibacterial activity against methicillin-sensitive Staphylococcus aureus 15 after 18 hrs by broth microdilution method; format: functional, organism-based; details: Staphylococcus aureus, 15, 18 h; read-out: IC50
Bacillus subtilis = experiment: Antibacterial activity against Bacillus subtilis SCSIO BS01 after 18 hrs by broth microdilution method; format: functional; details: SCSIO BS01, 18 h
[13] = tested on: Staphylococcus epidermidis; experiment: Antibacterial activity against methicillin-resistant Staphylococcus epidermidis 12-8 after 18 hrs by broth microdilution method; format: functional, organism-based; details: 12-8, 18 h, read-out: IC50
Escherichia coli [14] = experiment: Antibacterial activity against extended spectrum beta-lactamase producing Escherichia coli 12-15 after 18 hrs by broth microdilution method; format: functional, organism-based; details: 12-15, 18 h, read-out: IC50
[15] = tested on: Staphylococcus epidermidis; experiment: Antibacterial activity against methicillin-sensitive Staphylococcus epidermidis 12-6 after 18 hrs by broth microdilution method; format: functional, organism-based; details: 12-6, 18 h
Klebsiella pneumoniae [16] = experiment: Antibacterial activity against extended spectrum beta-lactamase producing Klebsiella pneumoniae ATCC 700603 after 18 hrs by broth microdilution method; format: functional, organism-based; details: ATCC 700603, 18 h
Escherichia coli [17] = experiment: Antibacterial activity against extended spectrum beta-lactamase-deficient Escherichia coli ATCC 25922 after 18 hrs by broth microdilution method; format: functional, organism-based; details: ATCC 25922, 18 h, read-out: IC50
Klebsiella pneumoniae [18] = experiment: Antibacterial activity against NDM-1 producing Klebsiella pneumoniae ATCC BAA-2146 after 18 hrs by broth microdilution method; format: functional, organism-based; details: ATCC BAA-2146, 18 h, read-out: IC50
Staphylococcus aureus [19] = experiment: Antibacterial activity against methicillin-resistant Staphylococcus aureus 12-33 after 18 hrs by broth microdilution method; format: functional, organism-based; details: 12-33, 18 h, read-out: IC50
Staphylococcus aureus [20] = experiment: Antibacterial activity against Staphylococcus aureus ATCC 29213 after 18 hrs by broth microdilution method; format: functional; details: ATCC 29213, 18 h
Klebsiella pneumoniae [21] = experiment: Antibacterial activity against extended spectrum beta-lactamase producing Klebsiella pneumoniae 12-8 after 18 hrs by broth microdilution method; format: functional, organism-based; details: 12-8, 18 h, read-out: IC50
Escherichia coli [22] = experiment: Antibacterial activity against Escherichia coli ATCC 25922 after 18 hrs by broth microdilution method; format: functional; details: ATCC 25922, 18 h
Escherichia coli [23] = experiment: Antibacterial activity against extended spectrum beta-lactamase-deficient Escherichia coli 1515 after 18 hrs by broth microdilution method; format: functional, organism-based; details: Escherichia coli, 1515, 18 h
Enterococcus faecium [24] = experiment: Antibacterial activity against vancomycin-sensitive Enterococcus faecium 12-3 after 18 hrs by broth microdilution method; format: functional, organism-based; details: 12-3, 18 h, read-out: IC50
Enterococcus faecium [25] = experiment: Antibacterial activity against vancomycin-resistant Enterococcus faecium 12-1 after 18 hrs by broth microdilution method; format: functional, organism-based; details: 12-1, 18 h, read-out: IC50
Staphylococcus aureus [26] = experiment: Antibacterial activity against methicillin-resistant Staphylococcus aureus ATCC 33591 after 18 hrs by broth microdilution method; format: functional, organism-based; details: ATCC 33591, 18 h, read-out: IC50
Staphylococcus aureus [27] = experiment: Ratio of levofloxacin IC50 to compound IC50 for methicillin-resistant Staphylococcus aureus 12-33 after 18 hrs by broth microdilution method; format: functional

SMILES	MIC (Bacillus thuringiensis) [µg/mL]	MIC (Escherichia coli [1]) [µM]	IC50 (Staphylococcus aureus [2]) [µM]	MIC [3] [µM]	MIC (Staphylococcus aureus [4]) [µM]	MIC (Enterococcus faecalis [5]) [µM]	MIC (Klebsiella pneumoniae [6]) [µM]	MIC (Enterococcus faecalis [7]) [µM]	MIC (Enterococcus faecalis [8]) [µM]	MIC (Enterococcus faecalis [9]) [µM]	MIC (Enterococcus faecium [10]) [µM]	IC50 (Klebsiella pneumoniae [11]) [µM]	MIC (Staphylococcus aureus [12]) [µM]	MIC (Bacillus subtilis) [µg/mL]	MIC [13] [µM]	MIC (Escherichia coli [14]) [µM]	IC50 [15] [µM]	IC50 (Klebsiella pneumoniae [16]) [µM]	MIC (Escherichia coli [17]) [µM]	MIC (Klebsiella pneumoniae [18]) [µM]	other results
CCCc1c(Cl)c(OC)cc2c1Oc1c(Cl)c(O)c(Cl)c(CCC)c1C(=O)O2	0.5 (≈ 1.12 µM)	> 256	4	4 (≈ 1.78 µg/mL)	8 (≈ 3.57 µg/mL)	128 (≈ 57.1 µg/mL)	> 256	> 256	> 256	256 (≈ 114 µg/mL)	256 (≈ 114 µg/mL)	> 256	4 (≈ 1.78 µg/mL)	0.25 (≈ 0.561 µM)	2 (≈ 0.891 µg/mL)	> 256	4	> 256	> 256	> 256	MIC (Staphylococcus aureus [19]): 8 µM (≈ 3.57 µg/mL); MIC (Staphylococcus aureus [20]): 0.5 µg/mL (≈ 1.12 µM); MIC (Klebsiella pneumoniae [21]): > 256 µM; MIC (Escherichia coli [22]): > 128 µg/mL; IC50 (Escherichia coli [23]): > 256 µM; MIC (Enterococcus faecium [24]): 256 µM (≈ 114 µg/mL); MIC (Enterococcus faecium [25]): 16 µM (≈ 7.13 µg/mL); MIC (Staphylococcus aureus [26]): 4 µM (≈ 1.78 µg/mL); Ratio IC50 (Staphylococcus aureus [27]): 2
CCCc1cc(O)c(Cl)c2c1Oc1c(Cl)c(O)c(Cl)c(CCC)c1C(=O)O2	1 (≈ 2.32 µM)	64 (≈ 27.6 µg/mL)	8	4 (≈ 1.73 µg/mL)	4 (≈ 1.73 µg/mL)	16 (≈ 6.91 µg/mL)	256 (≈ 111 µg/mL)	16 (≈ 6.91 µg/mL)	16 (≈ 6.91 µg/mL)	16 (≈ 6.91 µg/mL)	16 (≈ 6.91 µg/mL)	128	4 (≈ 1.73 µg/mL)	1 (≈ 2.32 µM)	4 (≈ 1.73 µg/mL)	64 (≈ 27.6 µg/mL)	2	256	64 (≈ 27.6 µg/mL)	256 (≈ 111 µg/mL)	MIC (Staphylococcus aureus [19]): 8 µM (≈ 3.45 µg/mL); MIC (Staphylococcus aureus [20]): 4 µg/mL (≈ 9.27 µM); MIC (Klebsiella pneumoniae [21]): 128 µM (≈ 55.3 µg/mL); MIC (Escherichia coli [22]): > 128 µg/mL; IC50 (Escherichia coli [23]): 64 µM; MIC (Enterococcus faecium [24]): 32 µM (≈ 13.8 µg/mL); MIC (Enterococcus faecium [25]): 16 µM (≈ 6.91 µg/mL); MIC (Staphylococcus aureus [26]): 4 µM (≈ 1.73 µg/mL); Ratio IC50 (Staphylococcus aureus [27]): 2
CCCc1c(Cl)c(O)c(Cl)c2c1Oc1c(Cl)c(O)c(Cl)c(CCC)c1C(=O)O2	2 (≈ 4.29 µM)	> 256	16	4 (≈ 1.86 µg/mL)	16 (≈ 7.46 µg/mL)	64 (≈ 29.8 µg/mL)	> 256	64 (≈ 29.8 µg/mL)	64 (≈ 29.8 µg/mL)	64 (≈ 29.8 µg/mL)	64 (≈ 29.8 µg/mL)	> 256	16 (≈ 7.46 µg/mL)	2 (≈ 4.29 µM)	8 (≈ 3.73 µg/mL)	> 256	4	> 256	> 256	> 256	MIC (Staphylococcus aureus [19]): 32 µM (≈ 14.9 µg/mL); MIC (Staphylococcus aureus [20]): 4 µg/mL (≈ 8.58 µM); MIC (Klebsiella pneumoniae [21]): > 256 µM; MIC (Escherichia coli [22]): > 128 µg/mL; IC50 (Escherichia coli [23]): > 256 µM; MIC (Enterococcus faecium [24]): 64 µM (≈ 29.8 µg/mL); MIC (Enterococcus faecium [25]): 64 µM (≈ 29.8 µg/mL); MIC (Staphylococcus aureus [26]): 16 µM (≈ 7.46 µg/mL); Ratio IC50 (Staphylococcus aureus [27]): 2

From ChEMBL document CHEMBL3232998, “Spiromastixones A-O, antibacterial chlorodepsidones from a deep-sea-derived Spiromastix sp. fungus” (J Nat Prod, 2014)
